Data on three compounds can be found in ChEMBL document CHEMBL4000185, “Pyrimidine-Based Inhibitors of Dynamin I GTPase Activity: Competitive Inhibition at the Pleckstrin Homology Domain” (J Med Chem, 2017).

The target of assay [1] is T1, 5-hydroxytryptamine receptor 2B (Homo sapiens, UniProt P41595). The assay can be described thus: Displacement of [125I](+/-)DOI from human recombinant 5-HT2B receptor expressed in CHO cells after 60 mins by scintillation counting. The class given is cell-based. A general note: Loss of bound radioactivity is the signal in a displacement assay; it reports binding, not function.

Assay [2] deals with Sodium-dependent dopamine transporter (Homo sapiens) (UniProt Q01959). The assay can be described thus: Displacement of [3H]BTCP from human recombinant dopamine transporter expressed in CHO cells at 10 uM after 120 mins by scintillation counting relative to control. The class given is cell-based. Particulars: values are per cent of control.
Assay [3] is described as follows: Growth inhibition of human U87 cells after 72 hrs by MTT assay. The class given is functional, U-87MG ATCC. Particulars: U-87 MG.
Assay [4] addresses Muscarinic acetylcholine receptor M1 (Homo sapiens) (UniProt P11229). The assay can be described thus: Displacement of [3H]pirenzepine from human recombinant Muscarinic acetylcholine receptor M1 expressed in CHO cells at 10 uM after 60 mins by scintillation counting relative to control. Particulars: values are per cent of control. The class given is cell-based.
For assay [5], the target named is 5-hydroxytryptamine receptor 6 (Homo sapiens) (UniProt P50406). The assay can be described thus: Displacement of [3H]LSD from human recombinant 5-HT6 receptor expressed in CHO cells at 10 uM after 120 mins by scintillation counting relative to control. The class given is cell-based. Particulars: values are per cent of control.
Assay [6] concerns NCI-H460. The assay can be described thus: Growth inhibition of human NCI-H460 cells after 72 hrs by MTT assay. Particulars: NCI-H460, 72 h. The class given is functional. On the technique in general: Tetrazolium dyes change colour on reduction, which living cells bring about.
Assay [7] has as its system BE(2)-C. The assay can be described thus: Growth inhibition of human BE(2)-C cells after 72 hrs by MTT assay. The class given is functional.
The target of assay [8] is 5-hydroxytryptamine receptor 5A (Homo sapiens) (UniProt P47898). The assay can be described thus: Displacement of [3H]LSD from human recombinant 5-HT5a receptor in HEK293 cells at 10 uM after 120 mins by scintillation counting relative to control. The class given is cell-based. Particulars: values are per cent of control.
Assay [9] has as its system DU-145. The assay can be described thus: Growth inhibition of human DU145 cells after 72 hrs by MTT assay. The class given is functional. Particulars: DU-145, 72 h.
Assay [10] in a line: Inhibition of phosphatidyl serine liposome-stimulated sheep brain dynamin 1 GTPase activity assessed as reduction orthophosphate release using GTP as substrate after 30 mins by malachite green reagent based colorimetric assay. The arrangement: species or system Ovis aries. Particulars: read-out: IC50.
For assay [11], the target named is Histamine H2 receptor (Homo sapiens) (UniProt P25021). The assay can be described thus: Displacement of [125I]APT from human recombinant histamine H2 receptor expressed in CHO cells at 10 uM after 120 mins by scintillation counting relative to control. The class given is cell-based. Particulars: values are per cent of control.
In assay [12] the test system is MIA PaCa-2. The assay can be described thus: Growth inhibition of human MIAPaCa2 cells after 72 hrs by MTT assay. Particulars: MIA PaCa-2, 72 h. The class given is functional.
For assay [13], the target named is Kappa-type opioid receptor (Rattus norvegicus) (UniProt P34975). The assay can be described thus: Displacement of [3H]U 69593 from rat recombinant kappa opioid receptor expressed in CHO cells at 10 uM after 60 mins by scintillation counting relative to control. The class given is cell-based. Particulars: values are per cent of control.
In assay [14] the target is 5-hydroxytryptamine receptor 7 (Homo sapiens) (UniProt P34969). The assay can be described thus: Displacement of [3H]LSD from human recombinant 5-HT7 receptor expressed in CHO cells at 10 uM after 120 mins by scintillation counting relative to control. The class given is cell-based. Particulars: values are per cent of control.
Assay [15] concerns the target Histamine H1 receptor (Homo sapiens) (UniProt P35367). The assay can be described thus: Displacement of [3H]pyrilamine from human recombinant histamine H1 receptor in HEK293 cells at 10 uM after 60 mins by scintillation counting relative to control. Particulars: values are per cent of control. The class given is cell-based.
In assay [16] the target is T1, 5-hydroxytryptamine receptor 2B. The assay can be described thus: Displacement of [125I](+/-)DOI from human recombinant 5-HT2B receptor expressed in CHO cells at 10 uM after 60 mins by scintillation counting relative to control. Particulars: values are per cent of control. The class given is cell-based.
A short description of assay [17]: Growth inhibition of human SMA cells after 72 hrs by MTT assay. The class given is functional.
In assay [18] the target is 5-hydroxytryptamine receptor 2A (Homo sapiens) (UniProt P28223). The assay can be described thus: Displacement of [3H]ketanserin from human recombinant 5-HT2A receptor in HEK293 cells at 10 uM after 60 mins by scintillation counting relative to control. The class given is cell-based. Particulars: values are per cent of control.
Assay [19] has as its system HT-29. The assay can be described thus: Growth inhibition of human HT-29 cells after 72 hrs by MTT assay. The class given is functional. Particulars: HT-29, 72 h.
Assay [20] has as its system A2780. The assay can be described thus: Growth inhibition of human A2780 cells after 72 hrs by MTT assay. The class given is functional. Particulars: A2780, 72 h.
For assay [21], the target named is D(2) dopamine receptor (Homo sapiens) (UniProt P14416). The assay can be described thus: Displacement of [3H]methyl-spiperone from human recombinant D2S receptor in HEK293 cells at 10 uM after 60 mins by scintillation counting relative to control. The class given is cell-based. Particulars: values are per cent of control.
The target in assay [22] is Muscarinic acetylcholine receptor M3 (Homo sapiens) (UniProt P20309). The assay can be described thus: Displacement of [3H]4-DAMP from human recombinant Muscarinic acetylcholine receptor M3 expressed in CHO cells at 10 uM after 60 mins by scintillation counting relative to control. The class given is cell-based. Particulars: values are per cent of control.
Assay [23] addresses Sodium-dependent noradrenaline transporter (Homo sapiens) (UniProt P23975). The assay can be described thus: Displacement of [3H]nisoxetine from human recombinant norepinephrine transporter expressed in CHO cells at 10 uM after 120 mins by scintillation counting relative to control. The class given is cell-based. Particulars: values are per cent of control.
Assay [24] has as its target Melanocortin receptor 4 (Homo sapiens) (UniProt P32245). The assay can be described thus: Inhibition of human recombinant melanocortin 4 receptor expressed in CHO cells at 10 uM relative to control. The class given is cell-based. Particulars: values are per cent of control.
In assay [25] the test system is MCF7. The assay can be described thus: Growth inhibition of human MCF7 cells after 72 hrs by MTT assay. The class given is functional. Particulars: MCF7, 72 h.
The nature of assay [26]: Growth inhibition of human SJ-G2 cells after 72 hrs by MTT assay. The class given is functional. Particulars: SJ-G2, 72 h.
Assay [27] concerns SW480. The assay can be described thus: Growth inhibition of human SW480 cells after 72 hrs by MTT assay. The class given is functional. Particulars: SW480, 72 h.
In assay [28] the target is Substance-K receptor (Homo sapiens) (UniProt P21452). The assay can be described thus: Displacement of [125I]NKA from human recombinant tachykinin NK2 receptor expressed in CHO cells at 10 uM after 60 mins by scintillation counting relative to control. The class given is cell-based. Particulars: values are per cent of control.
Assay [29] has as its system A-431. The assay can be described thus: Growth inhibition of human A431 cells after 72 hrs by MTT assay. The class given is functional. Particulars: A-431, 72 h.
Assay [30] deals with A-431. The assay can be described thus: Growth inhibition of human A431 cells assessed as cell death at 25 uM after 72 hrs by MTT assay relative to control. The class given is functional. The arrangement: scale not given: the % may be the effect or the level left.
Assay [31] can be described thus: Growth inhibition of human SMA cells assessed as cell death at 25 uM after 72 hrs by MTT assay relative to control. The arrangement: scale not given: the % may be the effect or the level left. The class given is functional.
Assay [32] concerns MIA PaCa-2. The assay can be described thus: Growth inhibition of human MIAPaCa2 cells assessed as cell death at 25 uM after 72 hrs by MTT assay relative to control. The class given is functional. The arrangement: scale not given: the % may be the effect or the level left.
Assay [33] relates to HT-29. The assay can be described thus: Growth inhibition of human HT-29 cells assessed as cell death at 25 uM after 72 hrs by MTT assay relative to control. The class given is functional. Set-up: scale not given: the % may be the effect or the level left.
Assay [34] relates to MCF7. The assay can be described thus: Growth inhibition of human MCF7 cells assessed as cell death at 25 uM after 72 hrs by MTT assay relative to control. The class given is functional. Set-up: scale not given: the % may be the effect or the level left.
The test system of assay [35] is NCI-H460. The assay can be described thus: Growth inhibition of human NCI-H460 cells assessed as cell death at 25 uM after 72 hrs by MTT assay relative to control. The class given is functional. The arrangement: scale not given: the % may be the effect or the level left.
Assay [36] is described as follows: Growth inhibition of human U87 cells assessed as cell death at 25 uM after 72 hrs by MTT assay relative to control. The class given is functional, U-87MG ATCC. Set-up: scale not given: the % may be the effect or the level left.
For assay [37], the system named is DU-145. The assay can be described thus: Growth inhibition of human DU145 cells assessed as cell death at 25 uM after 72 hrs by MTT assay relative to control. The class given is functional. The arrangement: scale not given: the % may be the effect or the level left.
Assay [38] can be described thus: Growth inhibition of human SJ-G2 cells assessed as cell death at 25 uM after 72 hrs by MTT assay relative to control. The class given is functional. Set-up: scale not given: the % may be the effect or the level left.
In assay [39] the test system is A2780. The assay can be described thus: Growth inhibition of human A2780 cells assessed as cell death at 25 uM after 72 hrs by MTT assay relative to control. The class given is functional. The arrangement: scale not given: the % may be the effect or the level left.
Assay [40] relates to SW480. The assay can be described thus: Growth inhibition of human SW480 cells assessed as cell death at 25 uM after 72 hrs by MTT assay relative to control. The arrangement: scale not given: the % may be the effect or the level left. The class given is functional.
The subject of assay [41] is BE(2)-C. The assay can be described thus: Growth inhibition of human BE(2)-C cells assessed as cell death at 25 uM after 72 hrs by MTT assay relative to control. The class given is functional. The arrangement: scale not given: the % may be the effect or the level left.

T1 sequence (P41595 whole entry): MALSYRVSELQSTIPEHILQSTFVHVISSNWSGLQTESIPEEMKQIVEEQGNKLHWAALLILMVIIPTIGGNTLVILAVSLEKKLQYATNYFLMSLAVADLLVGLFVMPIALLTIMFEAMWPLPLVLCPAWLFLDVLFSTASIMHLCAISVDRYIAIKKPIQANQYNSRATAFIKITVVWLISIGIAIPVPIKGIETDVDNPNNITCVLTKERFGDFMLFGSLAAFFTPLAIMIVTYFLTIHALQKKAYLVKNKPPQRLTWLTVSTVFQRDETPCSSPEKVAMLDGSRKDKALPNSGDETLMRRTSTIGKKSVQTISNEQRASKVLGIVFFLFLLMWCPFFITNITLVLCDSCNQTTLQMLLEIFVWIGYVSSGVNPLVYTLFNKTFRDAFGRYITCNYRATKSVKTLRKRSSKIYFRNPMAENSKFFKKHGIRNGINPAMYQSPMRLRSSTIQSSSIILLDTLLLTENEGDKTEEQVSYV
Histamine H1 receptor (Homo sapiens), sequence (P35367 whole entry): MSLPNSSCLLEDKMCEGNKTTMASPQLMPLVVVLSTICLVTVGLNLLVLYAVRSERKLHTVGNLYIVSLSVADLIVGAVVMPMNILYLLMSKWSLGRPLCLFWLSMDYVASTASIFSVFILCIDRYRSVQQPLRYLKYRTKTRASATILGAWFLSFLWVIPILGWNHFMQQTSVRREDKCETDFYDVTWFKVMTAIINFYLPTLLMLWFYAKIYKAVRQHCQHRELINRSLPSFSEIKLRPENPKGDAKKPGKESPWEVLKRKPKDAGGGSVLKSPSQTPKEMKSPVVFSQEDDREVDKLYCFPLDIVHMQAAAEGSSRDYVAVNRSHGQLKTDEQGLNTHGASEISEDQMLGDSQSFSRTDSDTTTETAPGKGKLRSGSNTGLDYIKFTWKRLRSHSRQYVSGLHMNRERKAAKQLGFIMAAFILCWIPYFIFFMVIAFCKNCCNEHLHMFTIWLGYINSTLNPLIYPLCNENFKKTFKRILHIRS
5-hydroxytryptamine receptor 6 (Homo sapiens), sequence (P50406 whole entry): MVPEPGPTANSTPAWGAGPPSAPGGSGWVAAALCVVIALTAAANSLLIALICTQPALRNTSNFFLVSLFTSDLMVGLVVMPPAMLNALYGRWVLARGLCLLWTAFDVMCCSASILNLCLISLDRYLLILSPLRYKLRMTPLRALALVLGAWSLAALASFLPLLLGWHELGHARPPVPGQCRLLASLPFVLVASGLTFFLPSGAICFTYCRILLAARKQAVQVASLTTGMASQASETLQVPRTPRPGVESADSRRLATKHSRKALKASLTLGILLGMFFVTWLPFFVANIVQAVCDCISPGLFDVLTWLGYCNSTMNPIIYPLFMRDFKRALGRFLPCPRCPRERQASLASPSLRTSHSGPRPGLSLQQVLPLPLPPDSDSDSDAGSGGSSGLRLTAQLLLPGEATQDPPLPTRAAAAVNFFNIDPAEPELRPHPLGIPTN
D(2) dopamine receptor (Homo sapiens), sequence (P14416 whole entry): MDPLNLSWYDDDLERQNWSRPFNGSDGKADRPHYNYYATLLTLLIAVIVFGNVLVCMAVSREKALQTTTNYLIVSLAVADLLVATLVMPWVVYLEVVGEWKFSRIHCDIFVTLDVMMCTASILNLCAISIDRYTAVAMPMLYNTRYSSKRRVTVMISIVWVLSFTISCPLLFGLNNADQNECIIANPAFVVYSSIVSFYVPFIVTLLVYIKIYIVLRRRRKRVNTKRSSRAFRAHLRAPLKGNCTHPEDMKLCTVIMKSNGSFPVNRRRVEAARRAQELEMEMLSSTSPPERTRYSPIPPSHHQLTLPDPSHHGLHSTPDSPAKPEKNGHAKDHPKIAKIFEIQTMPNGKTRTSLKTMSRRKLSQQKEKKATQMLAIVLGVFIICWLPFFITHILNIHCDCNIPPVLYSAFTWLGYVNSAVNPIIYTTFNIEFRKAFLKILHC
Muscarinic acetylcholine receptor M1 (Homo sapiens), sequence (P11229 whole entry): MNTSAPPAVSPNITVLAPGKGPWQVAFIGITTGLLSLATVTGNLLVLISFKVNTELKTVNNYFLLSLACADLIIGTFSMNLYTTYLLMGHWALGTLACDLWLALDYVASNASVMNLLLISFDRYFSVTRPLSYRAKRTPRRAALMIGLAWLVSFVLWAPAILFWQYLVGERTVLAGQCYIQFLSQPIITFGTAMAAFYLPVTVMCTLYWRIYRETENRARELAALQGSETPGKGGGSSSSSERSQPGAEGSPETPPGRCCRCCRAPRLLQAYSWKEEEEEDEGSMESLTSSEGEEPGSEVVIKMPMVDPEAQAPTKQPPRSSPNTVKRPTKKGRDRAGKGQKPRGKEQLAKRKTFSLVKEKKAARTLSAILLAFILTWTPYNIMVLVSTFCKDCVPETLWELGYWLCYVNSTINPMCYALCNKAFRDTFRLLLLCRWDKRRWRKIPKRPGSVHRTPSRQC
Kappa-type opioid receptor (Rattus norvegicus), sequence (P34975 whole entry): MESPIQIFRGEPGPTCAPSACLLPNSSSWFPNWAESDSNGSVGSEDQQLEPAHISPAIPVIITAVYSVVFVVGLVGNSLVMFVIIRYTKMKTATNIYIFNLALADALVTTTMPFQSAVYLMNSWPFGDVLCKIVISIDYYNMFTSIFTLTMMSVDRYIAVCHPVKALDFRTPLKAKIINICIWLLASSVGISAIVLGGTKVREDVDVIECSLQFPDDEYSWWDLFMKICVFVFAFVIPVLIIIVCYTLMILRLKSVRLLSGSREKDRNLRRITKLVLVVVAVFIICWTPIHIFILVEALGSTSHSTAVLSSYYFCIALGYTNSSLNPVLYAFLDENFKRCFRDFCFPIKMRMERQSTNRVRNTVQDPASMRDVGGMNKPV
Substance-K receptor (Homo sapiens), sequence (P21452 whole entry): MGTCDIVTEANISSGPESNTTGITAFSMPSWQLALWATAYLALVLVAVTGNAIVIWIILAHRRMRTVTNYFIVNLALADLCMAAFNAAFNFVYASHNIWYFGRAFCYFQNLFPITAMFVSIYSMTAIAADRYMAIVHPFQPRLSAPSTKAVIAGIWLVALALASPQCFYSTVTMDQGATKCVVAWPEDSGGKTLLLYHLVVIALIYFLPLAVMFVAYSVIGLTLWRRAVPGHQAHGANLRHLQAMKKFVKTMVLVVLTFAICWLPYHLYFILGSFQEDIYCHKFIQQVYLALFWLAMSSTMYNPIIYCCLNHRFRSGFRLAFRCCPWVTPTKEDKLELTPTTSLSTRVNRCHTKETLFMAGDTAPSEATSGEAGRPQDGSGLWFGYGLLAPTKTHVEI
Histamine H2 receptor (Homo sapiens), sequence (P25021 whole entry): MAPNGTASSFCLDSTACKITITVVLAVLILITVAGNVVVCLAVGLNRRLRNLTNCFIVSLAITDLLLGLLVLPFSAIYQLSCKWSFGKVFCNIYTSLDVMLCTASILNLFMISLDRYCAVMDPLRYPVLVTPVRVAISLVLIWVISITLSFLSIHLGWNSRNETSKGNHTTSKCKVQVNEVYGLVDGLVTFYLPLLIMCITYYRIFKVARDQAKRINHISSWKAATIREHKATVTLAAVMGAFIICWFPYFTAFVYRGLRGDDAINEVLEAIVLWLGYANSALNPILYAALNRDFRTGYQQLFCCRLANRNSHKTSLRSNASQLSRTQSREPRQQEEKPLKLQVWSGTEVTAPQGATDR
Sodium-dependent dopamine transporter (Homo sapiens), sequence (Q01959 whole entry): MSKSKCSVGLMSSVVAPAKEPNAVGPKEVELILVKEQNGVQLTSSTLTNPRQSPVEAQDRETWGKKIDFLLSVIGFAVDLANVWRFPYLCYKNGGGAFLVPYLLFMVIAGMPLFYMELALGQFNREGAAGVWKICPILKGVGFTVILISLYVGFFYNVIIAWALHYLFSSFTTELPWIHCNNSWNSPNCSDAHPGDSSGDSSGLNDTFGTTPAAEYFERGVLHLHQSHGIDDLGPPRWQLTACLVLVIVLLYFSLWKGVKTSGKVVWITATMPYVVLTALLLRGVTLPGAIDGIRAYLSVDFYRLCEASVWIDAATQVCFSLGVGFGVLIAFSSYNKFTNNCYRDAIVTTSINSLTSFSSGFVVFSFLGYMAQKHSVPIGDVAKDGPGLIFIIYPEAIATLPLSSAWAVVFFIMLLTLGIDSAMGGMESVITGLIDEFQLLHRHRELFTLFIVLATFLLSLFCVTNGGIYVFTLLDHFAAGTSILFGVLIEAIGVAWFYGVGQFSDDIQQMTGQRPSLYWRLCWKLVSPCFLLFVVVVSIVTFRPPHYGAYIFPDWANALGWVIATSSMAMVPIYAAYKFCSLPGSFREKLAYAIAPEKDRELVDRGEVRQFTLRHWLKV
Muscarinic acetylcholine receptor M3 (Homo sapiens), sequence (P20309 whole entry, looked up): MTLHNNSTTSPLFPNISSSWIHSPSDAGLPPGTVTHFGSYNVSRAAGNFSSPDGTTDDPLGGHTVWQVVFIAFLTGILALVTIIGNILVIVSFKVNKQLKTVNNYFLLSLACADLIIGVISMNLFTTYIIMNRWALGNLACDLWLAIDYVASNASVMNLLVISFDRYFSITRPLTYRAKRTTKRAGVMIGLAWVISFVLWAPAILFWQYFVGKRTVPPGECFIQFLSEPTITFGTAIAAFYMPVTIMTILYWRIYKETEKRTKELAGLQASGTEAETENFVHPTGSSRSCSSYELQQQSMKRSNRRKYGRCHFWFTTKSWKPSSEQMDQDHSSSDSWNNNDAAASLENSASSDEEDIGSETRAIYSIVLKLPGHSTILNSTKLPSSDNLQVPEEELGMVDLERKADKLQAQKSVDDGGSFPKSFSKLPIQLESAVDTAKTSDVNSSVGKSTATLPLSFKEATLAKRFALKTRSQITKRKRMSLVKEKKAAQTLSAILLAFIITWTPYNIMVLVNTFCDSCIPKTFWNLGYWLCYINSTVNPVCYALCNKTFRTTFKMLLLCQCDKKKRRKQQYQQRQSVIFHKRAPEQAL

One may read the Ki as a measure of affinity in units of concentration, obtained from inhibition or displacement. As for `COc1cc(CC(C)N)c(OC)cc1I` (racemic), the Ki in assay [1] was determined as 1.6 nM.

Usually GI50 stands for the concentration giving 50% growth inhibition. Usually IC50 stands for the concentration needed to halve the response being measured. `CCCCCCCCCCCCNc1nc(C)cc(NCCN(C)C)n1`: the residual binding, % of control in assay [2] was 105%; in assay [4], 91%; in assay [5] it was 91%; in assay [8], 99%; in assay [11], 106%; in assay [13], 97%. The residual binding, % of control in assay [14] came to 98%; in assay [15], 102%; in assay [16], 94%; in assay [18] it was 93%; in assay [21], 99%; in assay [22] it was 104%. Further, the residual binding, % of control worked out at 96% in assay [23], 96% in assay [24] and 93% in assay [28]. Moreover, the GI50 in assay [3] worked out at 1500 nM; in the assay on NCI-H460 [6], 2500 nM; with BE(2)-C [7] it was 1500 nM; in the assay with DU-145 [9], 1900 nM; in the assay on MIA PaCa-2 [12], 1500 nM; in [17], 1300 nM. For the same compound, the GI50 with HT-29 [19] is 1400 nM; in the assay with A2780 [20], 1800 nM; in the assay with MCF7 [25] it was 1500 nM; in [26] it was 1500 nM; in the assay with SW480 [27] it was 800 nM; in the assay on A-431 [29] it was 1700 nM. Besides, the half-maximal inhibitory concentration (IC50) in assay [10] is 1400 nM.

`CCCCCCCCCCCCNc1nc(C)cc(Cl)n1`: the Activity with A-431 [30] came out at 25%; in [31], 65%; in the assay on MIA PaCa-2 [32] it was 42%; in the assay on HT-29 [33], 56%; in the assay on MCF7 [34], 53%; with NCI-H460 [35], 21%. Further, the Activity in [36] is recorded as 21%; in the assay on DU-145 [37] it was 42%; in assay [38], 25%; in the assay with A2780 [39] it was 63%; with SW480 [40] it was 37%; in the assay on BE(2)-C [41], 46%. The 50% inhibitory concentration (IC50) in assay [10] is more than 300000 nM.
